The source of these data is patent US11439707B2, “Hypocrellin derivative substituted both in a peri-position and in 2-position by amino, preparation method, and application thereof” (priority 2017, dated 2022).

Series [1] in a line: absorption spectrum (maximum absorption wavelength, molar extinction coefficient). It is filed as physicochemical.
A short description of series [2]: singlet oxygen efficiency test, reference rose bengal. The class given is physicochemical.

As for `COCCOCCN1C(=O)CN(C(=O)OCCNc2c(NCCOC(=O)N3CC(=O)N(CCOCCOC)C(=O)C3)c3c(=O)cc(OC)c4c5c(OC)cc(=O)c6c(O)c(OC)c7c(c(c2C=C(C)C7C(C)=O)c34)c65)CC1=O` (stereo not drawn) [HB-40a-PEG1], in series [1], the maximum absorption wavelength worked out at 624 nm and the molar extinction coefficient is on record as 31,500 M^−1cm^−1. For the same molecule, the singlet oxygen yield in series [2] amounted to 32%.
In the case of `COc1c(O)c2c(=O)cc(OC)c3c4c(OC)cc(=O)c5c(NO)c(NO)c6c(c(c1CC(C)=C6)c23)c54` [HC-37a], in series [1], the maximum absorption wavelength came out at 620 nm and the molar extinction coefficient is on record as 30,500 M^−1cm^−1. The molecule further showed a singlet oxygen yield in series [2] of 32%.
Regarding `COc1c(O)c2c(=O)cc(OC)c3c4c(OC)cc(=O)c5c(NC6(CO)CC6)c(NC6(CO)CC6)c6c(c(c1C(C(C)=O)C(C)=C6)c23)c54` (stereo not drawn) [HB-35a], in series [1], the maximum absorption wavelength is recorded as 621 nm and the molar extinction coefficient is reported as 30,500 M^−1cm^−1. The molecule further displayed a singlet oxygen yield in series [2] of 32%.
Take `COc1c(O)c2c(=O)cc(OC)c3c4c(OC)cc(=O)c5c(NCC6CCC(C(=O)NCCS(=O)(=O)O)CC6)c(NCC6CCC(C(=O)NCCS(=O)(=O)O)CC6)c6c(c(c1CC(C)=C6)c23)c54` (stereo not drawn) [HC-13a-C2-SO3H]: in series [1], the maximum absorption wavelength is on record as 622 nm and the molar extinction coefficient is 31,000 M^−1cm^−1. The singlet oxygen yield in series [2] came to 32%.
The like results for `COC(=O)C1CCC(CNc2c(O)c3c(=O)cc(OC)c4c5c(OC)cc(=O)c6c(NCC7CCC(C(=O)OC)CC7)c(OC)c7c(c(c2C=C(C)C7C(C)=O)c34)c65)CC1` (stereo not drawn) [HB-13b-AcE] were, in that order, 623 nm, 27,000 M^−1cm^−1 and 24%.
The like results for `COc1c(O)c2c(=O)cc(OC)c3c4c(OC)cc(=O)c5c(NC6CCC(O)CC6)c(NC6CCC(O)CC6)c6c(c(c1C(C(C)=O)C(C)=C6)c23)c54` (stereo not drawn) [HB-17a] were, in that order, 617 nm, 25,000 M^−1cm^−1 and 22%.
The like results for `COCCOC(=O)C1CCC(Nc2c(NC3CCC(C(=O)OCCOC)C3)c3c(=O)cc(OC)c4c5c(OC)cc(=O)c6c(O)c(OC)c7c(c(c2C=C(C)C7C(C)=O)c34)c65)C1` (stereo not drawn) [HB-19a-PEG1] were, in that order, 624 nm, 30,500 M^−1cm^−1 and 32%.
With `COCCOCCOCCOCCOCCOCCOC(=O)C1CCCCC1Nc1c(O)c2c(=O)cc(OC)c3c4c(OC)cc(=O)c5c(NC6CCCCC6C(=O)OCCOCCOCCOCCOCCOCCOC)c(OC)c6c(c(c1C=C(C)C6C(C)=O)c23)c54` (stereo not drawn) [HB-16b-PEG6], in series [1], the maximum absorption wavelength is listed as 624 nm and the molar extinction coefficient is 30,500 M^−1cm^−1. Also, in series [2], the singlet oxygen yield worked out at 32%.
For `COc1c(O)c2c(=O)cc(OC)c3c4c(OC)cc(=O)c5c(NC6CCC(C(=O)O)CC6)c(NC6CCC(C(=O)O)CC6)c6c(c(c1C(C(C)=O)C(C)=C6)c23)c54` (stereo not drawn) [HB-14a] the same measures were 625 nm, 27,000 M^−1cm^−1 and 25%.
For `COc1c(O)c2c(=O)cc(OC)c3c4c(OC)cc(=O)c5c(NCCSCCOCCO)c(NCCSCCOCCO)c6c(c(c1C(C(C)=O)C(C)=C6)c23)c54` (stereo not drawn) [HB-6a-PEG1] the same measures were 622 nm, 30,500 M^−1cm^−1 and 28%.
For the molecule `COCCOCCC(=O)OCCOCCNc1c2c3c4c(c(OC)c(=O)c5c(O)cc(OC)c(c6c(OC)cc(NCCOCCOC(=O)CCOCCOC)c(c1=O)c63)c54)C(C(C)=O)C(C)=C2` (stereo not drawn) [HB-1c-PEG1], in series [1], the maximum absorption wavelength was 626 nm and the molar extinction coefficient is recorded as 33,000 M^−1cm^−1. The same molecule gave a singlet oxygen yield in series [2] of 38%.
As to `COc1c2c3c4c(c(NCCO)c(=O)c5c(O)cc(OC)c(c6c(OC)cc(NCCO)c(c1=O)c63)c54)C=C(C)C2C(C)=O` (stereo not drawn) [HB-2d], in series [1], the maximum absorption wavelength is listed as 629 nm and the molar extinction coefficient is given as 30,000 M^−1cm^−1. Besides, the singlet oxygen yield in series [2] amounted to 26%.
For `COc1c(NCc2cccc[n+]2CCCC(=O)O)c2c(=O)cc(OC)c3c4c(OC)cc(=O)c5c(O)c(NCc6cccc[n+]6CCCC(=O)O)c6c(c(c1C(C(C)=O)C(C)=C6)c23)c54` (stereo not drawn) [HB-38b-N—COOH] the same measures were 620 nm, 21,500 M^−1cm^−1 and 18%.
The like results for `COc1c2c3c4c(c(NC5CCCCC5C(=O)O)c(=O)c5c(NC6CCCCC6C(=O)O)cc(OC)c(c6c(OC)cc(O)c(c1=O)c63)c54)C=C(C)C2C(C)=O` (stereo not drawn) [HB-16c] were, in that order, 628 nm, 28,000 M^−1cm^−1 and 28%.
The like results for `COc1c(NC2CCC(C(=O)O)C2)c2c(=O)cc(OC)c3c4c(OC)cc(=O)c5c(O)c(NC6CCC(C(=O)O)C6)c6c(c(c1C(C(C)=O)C(C)=C6)c23)c54` (stereo not drawn) [HB-19b] were, in that order, 620 nm, 25,000 M^−1cm^−1 and 22%.
Consider `COCCOCCOCCOCCOCCOCCOC(=O)C1CCC(Nc2c3c4c5c(c(OC)c(=O)c6c(NC7CCC(C(=O)OCCOCCOCCOCCOCCOCCOC)C7)cc(OC)c(c7c(OC)cc(O)c(c2=O)c74)c65)C(C(C)=O)C(C)=C3)C1` (stereo not drawn) [HB-19d-PEG6], for which, in series [1], the maximum absorption wavelength was determined as 636 nm and the molar extinction coefficient was 31,000 M^−1cm^−1. Further, the singlet oxygen yield in series [2] worked out at 32%.
The like results for `COCCOCCOCCOCCOCCOCCOCCC(=O)OCCOCCNc1c(O)c2c(=O)cc(OC)c3c4c(OC)cc(=O)c5c(NCCOCCOC(=O)CCOCCOCCOCCOCCOCCOCCOC)c(OC)c6c(c(c1C=C(C)C6C(C)=O)c23)c54` (stereo not drawn) [HB-1b-PEG6] were, in that order, 622 nm, 30,000 M^−1cm^−1 and 32%.
Consider `COc1c2c3c4c(c(NC5CCC(O)CC5)c(=O)c5c(NC6CCC(O)CC6)cc(OC)c(c6c(OC)cc(O)c(c1=O)c63)c54)C=C(C)C2C(C)=O` (stereo not drawn) [HB-17c], for which, in series [1], the maximum absorption wavelength is 622 nm and the molar extinction coefficient was 26,000 M^−1cm^−1. In series [2], this molecule came in with a singlet oxygen yield of 23%.
The like results for `COc1c(NC2CCCCC2C(=O)O)c2c(=O)cc(OC)c3c4c(OC)cc(=O)c5c(O)c(NC6CCCCC6C(=O)O)c6c(c(c1C(C(C)=O)C(C)=C6)c23)c54` (stereo not drawn) [HB-16b] were, in that order, 625 nm, 26,000 M^−1cm^−1 and 26%.
The like results for `COCCOCCOCCOCCOCCOCCOCCOCCOCCOCCOCCOCCOCCOCCOCCOCCOC(=O)C1CCC(CNc2c3c4c5c(c(OC)c(=O)c6c(NCC7CCC(C(=O)OCCOCCOCCOCCOCCOCCOCCOCCOCCOCCOCCOCCOCCOCCOCCOCCOC)CC7)cc(OC)c(c7c(OC)cc(O)c(c2=O)c74)c65)CC(C)=C3)CC1` (stereo not drawn) [HC-13d-PEG16] were, in that order, 625 nm, 31,500 M^−1cm^−1 and 30%.
